Measured values published in ChEMBL document CHEMBL3351821, “Naturally occurring N(6)-substituted adenosines (cytokinin ribosides) are in vitro inhibitors of platelet aggregation: an in silico evaluation of their interaction with the P2Y(12) receptor” (Bioorg Med Chem Lett, 2014).
pIC50: −log10 of the molar value. The source made the active and inactive calls. The rule behind the calls is not given here.

System: Platelet
Test: Inhibition of collagen-induced human platelet aggregation after 3 mins by light transmission aggregometry
Format: functional, cell-based
Conditions: for pIC50: 0.05 h

Row | SMILES | pIC50 | inhibition
1 | OC[C@H]1O[C@@H](n2cnc3c(NCc4ccco4)ncnc32)[C@H](O)[C@@H]1O [KINETIN RIBOSIDE] | 4.39 | 
2 | CC(C)=CCNc1ncnc2c1ncn2[C@@H]1O[C@H](CO)[C@@H](O)[C@H]1O [RIBOPRINE] | 3.85 | 
3 | OC[C@H]1O[C@@H](n2cnc3c(NCc4ccc(O)cc4)ncnc32)[C@H](O)[C@@H]1O | 5.17 | 
4 | OC[C@H]1O[C@@H](n2cnc3c(NCc4ccccc4)ncnc32)[C@H](O)[C@@H]1O [N6-BENZYLADENOSINE] | 4.43 | 
5 | c1coc(CNc2ncnc3[nH]cnc23)c1 |  | Active
